Measurements as given in patent US11254633B2, “Cannabis thin layer decarboxylation” (priority 2018, dated 2022).
Like-named read-outs stand apart in the source and are kept apart here.

What was measured:
[1] = CBD plasma concentration after dosing; format: in vivo
Procedure: The dosing of CBD for a given range of activity is predictable, Table 1. […] This is a desirable group of activities to select. CBD at one micromolar is equivalent to 0.3 ng per ML and 10 micromolar is equivalent to 3 ng per ML. AUC for CBD ranges widely for different subjects but reportedly averages about 4 ng hour per ML. A single dose of 4 mg would provide an average 0.16 ng/ml concentration over 24 hours. […] Thus in 80 mg dose would provide an average of 10 micromolar over 24 hours. A single dose would produce a single large peak with return to baseline within about 10 hours, again this is variable between individuals. It is known that as frequency of dosing increases the plasma concentration will approach a steady-state or constant value between doses, eliminating the large peaks and valleys associated with infrequent doses. A reasonable dosing schedule might be 25 mg CBD three times daily to achieve 75 mg daily, about 9.4 micromolar average, at the high end of the 1-10 uM range. Similarly a 2.5 mg dose every eight hours would yield an approximately 1 micromolar average concentration.

[2] = cited from earlier work
[3] = plant material in a 110° C. oven, Taschwer; cited from earlier work
[4] = cited from earlier work; remark: listed apart in the source
[5] = test system: alpha1 adrenoreceptors and u-opioid receptors; conditions: CBD at 1-10 uM; cited from earlier work
[6] = test system: Human keratinocyte; conditions: CBD at 1-10 uM; cited from earlier work
[7] = molecular target: TRPV1 receptor (Homo sapiens, UniProt Q8NER1); conditions: CBD at 1-10 uM; cited from earlier work
Chain of TRPV1 receptor (Q8NER1 whole entry): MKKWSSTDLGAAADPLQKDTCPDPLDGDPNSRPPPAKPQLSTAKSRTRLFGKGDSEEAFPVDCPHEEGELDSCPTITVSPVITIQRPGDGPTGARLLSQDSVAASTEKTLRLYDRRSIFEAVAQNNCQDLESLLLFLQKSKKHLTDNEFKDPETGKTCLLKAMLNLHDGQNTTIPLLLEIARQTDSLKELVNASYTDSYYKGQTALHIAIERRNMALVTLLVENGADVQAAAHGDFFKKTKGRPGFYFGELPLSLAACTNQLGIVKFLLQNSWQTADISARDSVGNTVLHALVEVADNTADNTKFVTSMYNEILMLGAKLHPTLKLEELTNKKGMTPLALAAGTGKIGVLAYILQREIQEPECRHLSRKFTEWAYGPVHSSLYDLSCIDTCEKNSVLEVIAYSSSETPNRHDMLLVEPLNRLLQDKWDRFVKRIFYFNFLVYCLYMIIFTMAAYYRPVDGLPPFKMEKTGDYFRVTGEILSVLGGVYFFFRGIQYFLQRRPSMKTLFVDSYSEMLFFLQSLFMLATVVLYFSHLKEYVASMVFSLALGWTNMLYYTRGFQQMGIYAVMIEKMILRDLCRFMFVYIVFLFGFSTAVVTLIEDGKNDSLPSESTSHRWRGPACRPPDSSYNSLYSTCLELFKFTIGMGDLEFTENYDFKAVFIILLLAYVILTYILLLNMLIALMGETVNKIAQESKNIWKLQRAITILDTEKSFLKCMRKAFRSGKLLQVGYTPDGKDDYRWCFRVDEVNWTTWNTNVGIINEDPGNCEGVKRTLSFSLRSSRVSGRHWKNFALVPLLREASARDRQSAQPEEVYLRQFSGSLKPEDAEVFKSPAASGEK

[8] = test system: neuroprotection; conditions: CBD at 1-10 uM; cited from earlier work
[9] = test system: Membrane; conditions: CBD at 1-10 uM; cited from earlier work
[10] = molecular target: T1, 5HT-1a receptor (Homo sapiens, UniProt P08908); conditions: CBD at >10 uM; cited from earlier work
T1 sequence (P08908 1-422): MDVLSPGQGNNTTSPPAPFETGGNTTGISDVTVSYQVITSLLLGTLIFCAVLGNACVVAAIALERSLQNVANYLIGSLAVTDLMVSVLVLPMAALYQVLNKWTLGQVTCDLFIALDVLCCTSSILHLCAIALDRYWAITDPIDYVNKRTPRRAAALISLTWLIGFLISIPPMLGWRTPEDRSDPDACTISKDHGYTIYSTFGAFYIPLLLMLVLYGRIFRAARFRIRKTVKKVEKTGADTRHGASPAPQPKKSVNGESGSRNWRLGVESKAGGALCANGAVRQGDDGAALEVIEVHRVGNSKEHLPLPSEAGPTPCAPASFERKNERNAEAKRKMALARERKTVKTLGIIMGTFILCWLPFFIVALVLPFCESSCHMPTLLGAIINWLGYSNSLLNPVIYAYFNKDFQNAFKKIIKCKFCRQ

[11] = for time to full conversion (decarboxylation): thin layer, 400 deg F.
[12] = 110° C., FIG. 7, cited from earlier work
[13] = molecular target: CB one receptor (Homo sapiens, UniProt P21554); conditions: fold lower than THC; cited from earlier work
Chain of CB one receptor (P21554 whole entry): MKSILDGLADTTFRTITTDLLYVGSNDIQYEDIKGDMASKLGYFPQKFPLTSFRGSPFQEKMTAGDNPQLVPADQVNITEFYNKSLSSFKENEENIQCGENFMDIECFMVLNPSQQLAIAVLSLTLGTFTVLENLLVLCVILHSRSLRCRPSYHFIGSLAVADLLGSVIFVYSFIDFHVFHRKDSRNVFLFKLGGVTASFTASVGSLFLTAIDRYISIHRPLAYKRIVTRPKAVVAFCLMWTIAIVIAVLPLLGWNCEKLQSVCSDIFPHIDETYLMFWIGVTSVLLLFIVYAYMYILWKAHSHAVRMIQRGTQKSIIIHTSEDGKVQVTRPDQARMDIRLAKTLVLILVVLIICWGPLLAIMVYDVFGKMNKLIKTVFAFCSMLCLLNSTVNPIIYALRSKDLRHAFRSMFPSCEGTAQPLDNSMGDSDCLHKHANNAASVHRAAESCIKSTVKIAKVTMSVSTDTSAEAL

[14] = molecular target: CB 2 receptor (Homo sapiens, UniProt P34972); conditions: fold higher than THC; cited from earlier work
Chain of CB 2 receptor (P34972 whole entry): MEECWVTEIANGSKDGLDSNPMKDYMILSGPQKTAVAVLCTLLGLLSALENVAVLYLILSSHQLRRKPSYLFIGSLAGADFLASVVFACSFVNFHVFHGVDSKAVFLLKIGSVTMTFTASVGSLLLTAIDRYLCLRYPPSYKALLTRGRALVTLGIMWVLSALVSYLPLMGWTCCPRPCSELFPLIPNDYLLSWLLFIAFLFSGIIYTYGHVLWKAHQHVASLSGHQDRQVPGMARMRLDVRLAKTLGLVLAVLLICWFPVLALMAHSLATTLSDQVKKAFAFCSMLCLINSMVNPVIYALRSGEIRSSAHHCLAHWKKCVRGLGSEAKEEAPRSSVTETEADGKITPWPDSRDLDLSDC

[15] = test system: onychomycosis; conditions: cited from earlier work
[16] = two-13-year-olds in one study; cited from earlier work
[17] = aqueous; cited from earlier work
[18] = cited from earlier work; remark: listed apart in the source
[19] = test system: pain patients; conditions: initial studies in pain patients; cited from earlier work
[20] = 100° C. and 110° C., FIG. 6C, 6D, sum decreases significantly

## C=C(C)[C@@H]1CCC(C)=C[C@H]1c1c(O)cc(CCCCC)cc1O [CBD, cannabidiol]
[1]; 2.5 mg dose every eight hours
  average concentration: approximately 1 micromolar
[1]; 25 mg CBD three times daily, 75 mg daily
  average concentration: about 9.4 micromolar
[1]; 80 mg dose
  average concentration over 24 hours: 10 µM
[1]; 8 milligrams dose
  average concentration over 24 hours: 0.32 ng per ML
  average concentration over 24 hours, as molarity: about one micromolar
[1]; single dose of 4 mg
  average concentration over 24 hours: 0.16 ng/mL
[2]; 80° C. and 90° C., FIG. 6A, 6B
  degradation judged from sum of CBDA and CBD concentration: no degradation
[2]; [20]
  degradation judged from sum of CBDA and CBD concentration: loss
[2]; 110° C., cannabis oil in an open vial in an oven, FIG. 6D
  time to peak CBD: 90 min
[2]; 120° open reactor, FIG. 6E
  loss of converted CBD compared to the closed reactor at the same temperature: 45-55%
[3]
  time to peak CBD: 135 min
[4]; ranges widely for different subjects
  AUC for CBD, average: about 4 ng hour per ML
[4]; single dose, variable between individuals
  return to baseline after a single dose: ≤ 10 h
[5]
  action induced by CBD: Decreased activation of alpha1 adrenoreceptors and u-opioid receptors: Activation of alpha1 adrenoreceptors and u-opioid
[6]
  action induced by CBD: Decreased human keratinocyte proliferation: Human keratinocyte proliferation
[7]
  action induced by CBD: Increased or activated TRPV1 receptor: TRPV1 receptor
[8]
  action induced by CBD: Increased or activated signs of neuroprotection: Signs of neuroprotection
[9]
  action induced by CBD: Increased or activated Membrane stability: Membrane stability
[10]
  action induced by CBD: Ativated 5HT-1a receptor: 5HT-1a receptor

## C=C(C)[C@@H]1CCC(C)=C[C@H]1c1c(O)cc(CCCCC)c(C(=O)O)c1O [CBDA]
[11]
  time to full conversion (decarboxylation): fully converted in under a minute
[2]; 80° C. and 90° C., FIG. 6A, 6B
  degradation judged from sum of CBDA and CBD concentration: no degradation
[2]; [20]
  degradation judged from sum of CBDA and CBD concentration: loss
[2]; 120° C. open reactor, FIG. 6E, incomplete conversion to CBD
  loss of CBDA: rapid loss

## CCCCCc1cc(O)c(C/C=C(\C)CCC=C(C)C)c(O)c1C(=O)O [CBGA]
[12]
  consumption of CBGA: complete consumption

## CCCCCc1cc(O)c(C/C=C(\C)CCC=C(C)C)c(O)c1 [CBG]
[12]; in the time decarboxylation is maximized
  loss of total CBG: 50%

## CCCCCc1cc(O)c2c(c1)OC(C)(C)c1ccc(C)cc1-2 [CBN]
[13]
  affinity for CB one receptor, lower than THC: 2 fold
[14]
  affinity for CB 2 receptor, higher than THC: 3 fold

## C=C1CC[C@H]2O[C@]2(C)CC[C@@H]2[C@@H]1CC2(C)C [Caryophyllene Oxide]
[15]; at 8% concentration
  time in which effective in onychomycosis: 15 days
[15]; in vivo
  clinical onychomycosis efficacy versus reference drugs: efficacy similar to cyclopiroxolamine and sulconazole

## CCCCCc1cc(O)c2c(c1)OC(C)(C)[C@@H]1CC=C(C)C[C@@H]21 [Delta 8 THC]
[16]
  psychoactive effect: no psychoactive effect

## CCCCCc1cc2c(c(O)c1C(=O)O)[C@@H]1C=C(C)CC[C@H]1C(C)(C)O2 [THCA]
[11]
  time to full conversion (decarboxylation): fully converted in under a minute

## CCCCCc1cc(O)c2c(c1)OC(C)(C)[C@@H]1CCC(C)=C[C@@H]21 [THC]
[11]; 20 min
  THC remaining: only a trace
[17]
  concentration at which THC saturates in cannabis tea: about 10 mg/L
[18]; relative to hydrocortisone
  anti-inflammatory activity relative to hydrocortisone: two times
[18]; times the activity of aspirin
  anti-inflammatory activity relative to aspirin: 20 times
[19]
  analgesic effect in pain patients: provided analgesic effects
[2]; 120° C. closed reactor
  loss of total THC (THC A+ THC) from the starting condition: approximately 10%
[2]; open reactor, 100° C. (212° F.), FIG. 6C
  loss of THC relative to 120° C. closed reactor: about 28%
[2]; open reactor, 110° C. (230° F.), FIG. 6d
  loss compared to that maximally achieved at 120° C. in the closed reactor: about 28%
